The target of assay [1] is T1, NS3 protease (Hepatitis C virus genotype 1a, UniProt P26664, A1066T/DELINS1218-1635AV/I1179L/T1080A). The assay is classed as cell-based. To be noted: increasing concentration of BILN-2061; 100 ng/mL doxycycline.
Assay [2] addresses T1, NS3 protease. The assay is classed as cell-based. To be noted: DBGal4-NS3-TAGal4, anti-HA western; intact TF undetectable in untreated controls.
Assay [3] concerns the target T1, NS3 protease. The assay is classed as cell-based. To be noted: Cho-K1 UAS H2B-Citrine line expressing DBGal4-NS3-TAGal4; drug ~24 hours; flow cytometry (FIG. 18). (In flow cytometry, cells or beads pass a laser one at a time.)
Assay [4] deals with T1, NS3 protease. The format is cell-based. To be noted: 3 μM BILN-2061.
A further assay relates to human Notch1. Put plainly: Dll1-NS3-mCherry ligand presentation and sender/receiver coculture Notch signaling. The format is cell-based. As to conditions: 1.5 μM BILN-2061. From the text:
FIG. 17C Immunofluorescence staining of fixed (non-permeabilized) cells expressing Dll1-NS3-mCherry. […] FIG. 17D Schematic depiction of trans-cellular signaling between Notch “receiver” cells by Dll1-NS3-mCherry expressing “sender” cells in the absence and presence of drug. FIG. 17E Fluorescence images of cocultured sender and receiver cells. Sender cells expressed the Dll1-NS3-mCherry ligand. Receiver cells constitutively expressed human Notch1 and H2B-Cerulean, and conditionally expressed H2B-Citrine upon up Notch activation. […] The interface between sender and receiver cells colonies is denoted by the white dotted line. FIG. 17F Magnified region from the inset shown in (17E) shown as an overlay with the corresponding transmitted light image.
FIGS. 25A and 25B show images of Dll1-NS3/4A-mCherry mediated cell-cell signaling captured by epifluorescence imaging under 10× magnification. FIG. 25A Sender cells expressing the Dll1-NS3/4A ligand are cultured with receiver cells expressing the Notch transmembrane receptor. Receiver cell population is identified by a constitutively expressed H2B-Cerulean. Notch activation drives reporter activity of H2B-Citrine. Cells are cultured together with or without 1.5 μM BILN-2061 drug for 72 hours before imaging. FIG. 25B […]

For another assay, the system named is CXCR4. Put plainly: dCas9-NS3-NLS/VPR drug-induced gene upregulation (flow cytometry). The assay is classed as cell-based, human. As to conditions: dCas9-NS3-NLS/VPR with sgRNA. As to the method:
FIGS. 16A-16E show drug-control over endogenous gene expression using dCas9-NS3-NLSNPR. FIG. 16A Schematic depiction of the drug-inducible stabilization and nuclear localization of dCas9-NS3-NLSNPR. […] An unfused dCas9 domain (160 kDa) is produced in the absence of drug. FIG. 16C Immunostained HeLa cells showing the subcellular localization of the dCas9 domain in the presence or absence of 3 μM BILN-2061. […] FIG. 16D Schematic of the time-dependent dye labeling strategy used to analyze cells expressing SNAP-dCas9-NS3-NLSNPR (top), and corresponding fluorescence images of dye-labeled HeLa cells (bottom). […] Expression of the chemokine receptor was analyzed by staining of cells anti-CXCR4 antibody followed by quantification via flow cytometry.
FIG. 22 sgRNAs targeting the CXCR4 promoter were co-transfected into HEK 293FT alongside DNAs encoding either dCas9-VPR, or dCas9-NS3-NLS/VPR. The extent of CXCR4 upregulation was subsequently quantified by flow cytometry using a fluorescently-labeled anti-CXCR4 antibody. […]
For expression analyses carried out using dCas9-based TFs, HEK 293FT cells were seeded in 48-well plates and transfected at a density of […] cells per well. […] Expression of the chemokine receptor was analysed via flow cytometry using a fluorescently-conjugated CXCR-4 antibody; geometric means were recorded.

For assay [5], the target named is T1, NS3 protease. The format is cell-based. As to conditions: for stabilization of full-length dCas9-NS3 TF (immunoblot): drug-treated versus untreated cells. For orientation: In western blotting, separated proteins are transferred to a membrane and probed.
The subject of assay [6] is HEK 293FT cells. Put plainly: SynNotch background (leaky) activation, SN versus SN-LWF core, HEK 293FT cells. The format is cell-based, human. How it is done: FIGS. 31A-31C show reduction of SynNotch leakiness by incorporation of the juxtamembrane LWF motif (FIG. 31A) Schematic of the Notch TMD and LWF motif, slightly modified from to highlight the difference between the original SynNotch core's C-terminus and the modified SynNotch core's C-terminus, where 10 amino acids are added to include the LWF motif (FIGS. 31B and 31C) anti-FITC SynNotch receptors containing SN or SN-LWF as the core domain are expressed and tested in HEK 293FT cells. Cells are either plated on fibronectin alone to test background activation (dashed lines) or on fibronectin with BSA-FITC to activate the receptors (solid lines). FIG. 31A discloses SEQ ID NO: 70. […] Values shown are the percentage of cells in the ON state for each case.
Data herein provides preliminary evidence that inclusion of the LWF motif reduces background activation in SynNotch receptors. In initial experiments, the original SynNotch core design (SN) was compare with a SynNotch core containing the LWF motif (SN-LWF) (FIG. 31A). Each receptor core was test with two different transcription factor intracellular domains (ICD's): Gal4 fused to VP64 (“VP64,” a modest transcriptional activator commonly used in SynNotch) and Gal4 fused to VPR (“VPR,” a strong transcriptional activator, whose strength is penalized by high background activation in SynNotch constructs). […]

For assay [7], the system named is HEK 293FT cells. Put plainly: Tension Gauge Tether (TGT) assay of Notch/SynNotch receptor activation. As to conditions: mCherry reporter, flow cytometry. The format is cell-based, human.
From the text: FIG. 5A-5E depict the use of ruptureable double-stranded DNA tethers. […] One strand of the TGT attaches to a rigid plate through biotin-avidin binding, while the other presents a ligand. The TGT ruptures at a defined force, determined by the orientation of the ligand and the biotin. If the TGT is weaker than the force required to activate the Notch receptor, it ruptures before the LNR domains can be displaced. If it is stronger, the LNR domains are displaced and activation occurs.
(FIG. 33A) TGTs are double stranded-DNA tethers that rupture at defined forces. One strand of the TGT attaches to a rigid plate, and the other presents a ligand for cells to bind. In this case, the ligand used is fluorescein, which interacts with an αFITC SynNotch. If the tension tolerance of the TGT is weaker than that of the NRR, the TGT will break before the NRR can open. If it is stronger, the NRR domain will unravel, and Notch activation will occur, as visualized by expression of an H2B-mCherry reporter gene.

Entries after “also recorded” stand apart in the source; their conditions may differ.

Turning to `COc1ccc2c(O[C@@H]3C[C@H]4C(=O)N[C@]5(C(=O)O)C[C@H]5/C=C\CCCCC[C@H](NC(=O)OC5CCCC5)C(=O)N4C3)cc(-c3csc(NC(C)C)n3)nc2c1` [BILN-2061], the “regulation of TRE BFP and UAS H2B-Citrine reporters” value on NS3 protease [1] was “induced concurrent TRE BFP activation and UAS H2B-Citrine repression”. Besides, the “BILN-2061 concentration at which TF stabilization was shown (enhanced detection)” value on NS3 protease [2] is 0.08 µM. Besides, the “expression of the H2B-Citrine reporter protein” value on NS3 protease [3] is “capable of inducing robust transcriptional responses”. Besides, the “preservation of intact turn-off TF proteins (western blot)” value on NS3 protease [4] is given as “Intact proteins were preserved”. In addition, the “Notch activation of receiver cells (H2B-Citrine) in coculture” value in the assay with human Notch1 (Dll1-NS3-mCherry sender cells) is “Activated receiver cells were observed only in cocultures treated with drug”. Further, the “surface presentation of Dll1 extracellular region” value in the assay on human Notch1 (fixed non-permeabilized cells expressing Dll1-NS3-mCherry) is on record as “Surface presentation of the Dll1 extracellular region was induced”. Moreover, the “upregulation of gene targets (UAS H2B-Citrine reporter, CXCR4)” value with CXCR4 is “induce upregulation of both gene targets in a dose-dependent manner”. For the same molecule, the “nuclear localization of dCas9 domain” value on NS3 protease [5] (HeLa cells, 3 μM BILN-2061) was “Nuclear localized dCas9 was observed only in drug treated cells”. Also, on NS3 protease [5], the “stabilization of full-length dCas9-NS3 TF (immunoblot)” value was “preservation of full-length dCas9-NS3-NLSNPR copies”.

On to `C[C@H](NC(=O)Cc1cc(F)cc(F)c1)C(=O)N[C@H](C(=O)OC(C)(C)C)c1ccccc1` [DAPT], for which the “effect on leaky SynNotch receptor activation” value with HEK 293FT cells [6] is listed as “suppress leaky receptor activation”.

`COc1ccc2c(O[C@@H]3C[C@H]4C(=O)N[C@]5(C(=O)O)C[C@H]5/C=C\CCCCC[C@H](NC(=O)OC5CCCC5)C(=O)N4C3)cc(-c3csc(NC(C)C)n3)nc2c1` [ciluprevir]: at NS3 protease [5], the “stabilization of full-length dCas9-NS3 TF (immunoblot)” value is on record as “dCNV is stabilized”.

Take `CC(C)(C)OC(=O)N[C@H]1CCCCC/C=C\[C@@H]2C[C@@]2(C(=O)NS(=O)(=O)C2CC2)NC(=O)[C@@H]2C[C@@H](OC(=O)N3Cc4cccc(F)c4C3)CN2C1=O` [danoprevir]: the “expression of the H2B-Citrine reporter protein” value on NS3 protease [3] is listed as “capable of inducing robust transcriptional responses”.

B1: WT NRR: "Notch's force-sensitive Negative Regulatory Region, which contains three LNR domains" (protein, listed as Homo sapiens)
chain: ILDYSFGGGAGRDIPPPLIEEACELPECQEDAGNKVCSLQCNNHACGWDGGDCSLNFNDPWKNCTQSLQCWKYFSDGHCDSQCNSAGCLFDGFDCQRAEGQCNPLYDQYCKDHFSDGHCDQGCNSAECEWDGLDCAEHVPERLAAGTLVVVVLMPPEQLRNSSFHFLRELSRVLHTNVVFKRDAHGQQMIFPYYGREEELRKHPIKRAAEGWAAPDALLGQVKASLLPGGSEGGRRRRELDPMDVRGSIVYLEIDNRQCVQASSQCFQSATDVAAFLGALASLGSLNIPYKIEAVQSETVEPPPPAQ
With B1, the “receptor activation on TGTs of defined strength” value with HEK 293FT cells [7] is “activated by both 12 pN and 56 pN TGTs; also recorded: responding identically to all mechanical stimuli”.

Source of the values: patent US10858443B2, “Synthetic notch protein for modulating gene expression” (TRUSTEES OF BOSTON UNIVERSITY, priority 2017, dated 2020).
